Results reported in patent publication US8906925B2, “Pyrido[4,3-B]indoles containing rigid moieties” (Medivation Technologies, Inc., priority 2008, dated 2014).
Where two headings read alike, the source gives them in different places.

Tests used:
histamine receptor H1 = histamine receptor H1 (Homo sapiens, UniProt P35367); test: Histamine H1 radioligand binding ([3H]Pyrilamine); settings: for inhibition at 1 µM: read-out: Histamine Binding (1 μM) H1, percent inhibition of specific binding, 1 μM
How it was run: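 Values are percent inhibition of specific [3H]pyrilamine (1.2 nM) binding with compounds at ≤1 μM (1% DMSO vehicle); 180 min incubation at 25 °C, pH 7.4 Tris buffer, on CHO-expressed human H1 receptor; 1 μM pyrilamine defined nonspecific binding, bound ligand counted after filtration.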

[1] = biological target: T1, human recombinant serotonin 5-HT1B receptor (Homo sapiens, UniProt P28222); test: 5-HT1B radioligand binding competition assay ([3H]5-CT, CHO-K1 membranes); settings: 5 μM, in duplicate, average
T1 construct: expressed in transfected cells; host or cells: CHO-K1 cell line, membrane extracts
Protocol: To determine the binding activity at the human recombinant serotonin 5-HT1B receptor of compounds of the invention, CHO-K1 cell line expressing the human 5-HT1B recombinant receptor was amplified to prepare membranes used for the radioligand binding assay throughout the study. Radioligand binding competition on 5-HT1B was performed by adding successively in the wells of a 96 well plate (Master Block, Greiner, 786201). […] The plate was incubated 60 min at 25° C. in a water bath and then filtered over GF/B filters (Perkin Elmer, 6005177, presoaked in 0.5% PE1 for 2 h at room temperature) with a Filtration unit (Perkin Elmer). The filters were washed 3× with 0.5 mL of ice-cold washing buffer (50 mM Tris pH 7.4). 50 μL Microscint 20 (Packard) was added and the plate was incubated 15 min on an orbital shaker and then counted with a TopCount™ for 1 min/well.
The reference value thus obtained for the test was compared to a historical value obtained from the same receptor and used to validate the experimental session. […] For replicate determinations, the maximum variability tolerated in the test was of +/−20% around the average of the replicates.
Compounds were tested for binding activity in the radioligand binding competition assay on human 5-HT1B receptor, at one concentration […], in duplicate. Dose-response data from test compounds were analyzed with XLfit (IDBS) software using nonlinear regression applied to a sigmoidal dose-response model.
Dose-response data was analyzed with XLfit (IDBS) software using non-linear regression applied to a sigmoidal dose-response model.

[2] = biological target: human dopamine D2L receptor (Homo sapiens, UniProt P14416); test: Dopamine D2L radioligand binding ([3H]Spiperone); settings: compound at 1 μM
From the text: Non-specific binding was estimated in the presence of […] Haloperidol. Receptor proteins were filtered and washed, the filters were then counted to determine [^3H]Spiperone specifically bound. […] Biochemical assay results are presented as the percent inhibition of specific binding in Table 9.

[3] = biological target: T2, human recombinant serotonin (5-Hydroxytryptamine) 5-HT2A receptor (Homo sapiens, UniProt P28223); test: Serotonin 5-HT2A radioligand binding ([3H]Ketanserin); settings: for inhibition at 1 µM: read-out: Inhibition of ligand binding, Serotonin 5-HT2A (percent inhibition of specific binding), compound at 1 μM
T2 construct: expressed in transfected cells; host or cells: Chinese hamster ovary (CHO-K1) cells
Protocol: Compounds of the invention were incubated with 0.5 nM [^3H]Ketanserin for 60 min. at 25° C. Non-specific binding was estimated in the presence of 1 μM Mianserin. Receptor proteins were filtered and washed, the filters were then counted to determine [^3H]Ketanserin specifically bound.

[4] = biological target: T3, human recombinant serotonin (5-Hydroxytryptamine) 5-HT6 receptor (Homo sapiens, UniProt P50406); test: Serotonin 5-HT6 radioligand binding ([3H]LSD); settings: read-out: Inhibition of ligand binding, Serotonin 5-HT6 (percent inhibition of specific binding); for inhibition at 1 µM: compound at 1 μM
T3 construct: expressed in transfected cells; host or cells: human HeLa cells
Protocol: Compounds of the invention were incubated with 1.5 nM [3H]Lysergic acid diethylamide (LSD) for 120 min. at 37° C. […] Receptor proteins were filtered and washed, the filters were then counted to determine [3H]LSD specifically bound. Compounds were screened at 1 μM or lower, using 1% DMSO as vehicle. Biochemical assay results are presented as the percent inhibition of specific binding in Table 10.

[5] = biological target: human recombinant serotonin (5-Hydroxytryptamine) 5-HT7 receptor (Homo sapiens, UniProt P34969); test: Serotonin 5-HT7 radioligand binding ([3H]LSD); settings: compound at 1 μM; read-out: Inhibition of ligand binding, Serotonin 5-HT7 (percent inhibition of specific binding)
From the text: Receptor proteins were filtered and washed, the filters were then counted to determine [^3H]LSD specifically bound.

[6] = biological target: T4, human recombinant histamine H2 receptor (Homo sapiens, UniProt P25021); test: Histamine H2 radioligand binding ([125I]Aminopotentidine); settings: read-out: Histamine Binding (1 μM) H2, percent inhibition of specific binding, 1 μM
T4 construct: expressed in transfected cells; host or cells: Chinese hamster ovary (CHO) K1 cells
How it was run: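 CHO-K1 cells expressing human recombinant H2 receptor, 50 mM phosphate buffer pH 7.4; compounds incubated with 0.1 nM [125I]aminopotentidine for 120 min at 25 °C. Nonspecific binding defined with 3 μM tiotidine; specifically bound radioligand counted after filtration and washing.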

[7] = biological target: T5, human recombinant serotonin (5-Hydroxytryptamine) 5-HT2C receptor (Homo sapiens, UniProt P28335); test: Serotonin 5-HT2C radioligand binding ([3H]Mesulergine); settings: read-out: Inhibition of ligand binding, Serotonin 5-HT2C (percent inhibition of specific binding); for inhibition at 1 µM: compound at 1 μM
T5 construct: expressed in transfected cells; host or cells: Chinese hamster ovary (CHO-K1) cells
T5 sequence (P28335 33-458): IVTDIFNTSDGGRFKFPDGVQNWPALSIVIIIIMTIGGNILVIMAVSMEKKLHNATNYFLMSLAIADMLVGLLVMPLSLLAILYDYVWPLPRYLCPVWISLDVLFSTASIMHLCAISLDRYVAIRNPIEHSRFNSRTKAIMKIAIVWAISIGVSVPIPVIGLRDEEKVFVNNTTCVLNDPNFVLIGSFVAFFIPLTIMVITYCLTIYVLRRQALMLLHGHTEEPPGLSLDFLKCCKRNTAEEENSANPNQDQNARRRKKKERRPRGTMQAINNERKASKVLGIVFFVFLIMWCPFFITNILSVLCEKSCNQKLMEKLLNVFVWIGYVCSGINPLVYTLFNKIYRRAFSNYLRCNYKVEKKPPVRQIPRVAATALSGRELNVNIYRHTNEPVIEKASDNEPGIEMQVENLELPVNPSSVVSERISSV
How it was run: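 Compounds tested at 1 μM or lower (1% DMSO vehicle) for displacement of 1 nM [3H]Mesulergine over 60 min at 25° C. Specific binding determined by filtration counting, with 1 μM Mianserin defining non-specific binding; values are percent inhibition.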

[8] = […] [3H]Spiperone, read-out: Inhibition of ligand binding, Dopamine D2L (percent inhibition of specific binding)
[9] = percent inhibition of specific binding, read-out: Inhibition of ligand binding, Dopamine D2L

T4 sequence (P25021 whole entry): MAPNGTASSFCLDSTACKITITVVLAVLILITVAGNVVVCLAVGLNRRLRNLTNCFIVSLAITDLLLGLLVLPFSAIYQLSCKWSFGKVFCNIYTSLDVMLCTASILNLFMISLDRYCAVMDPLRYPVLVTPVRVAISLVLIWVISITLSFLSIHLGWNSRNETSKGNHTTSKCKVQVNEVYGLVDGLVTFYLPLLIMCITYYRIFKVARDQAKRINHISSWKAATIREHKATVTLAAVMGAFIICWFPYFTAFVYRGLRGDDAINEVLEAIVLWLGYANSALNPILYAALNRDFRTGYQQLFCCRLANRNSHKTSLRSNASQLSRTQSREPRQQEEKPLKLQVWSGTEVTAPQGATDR
T2 sequence (P28223 whole entry): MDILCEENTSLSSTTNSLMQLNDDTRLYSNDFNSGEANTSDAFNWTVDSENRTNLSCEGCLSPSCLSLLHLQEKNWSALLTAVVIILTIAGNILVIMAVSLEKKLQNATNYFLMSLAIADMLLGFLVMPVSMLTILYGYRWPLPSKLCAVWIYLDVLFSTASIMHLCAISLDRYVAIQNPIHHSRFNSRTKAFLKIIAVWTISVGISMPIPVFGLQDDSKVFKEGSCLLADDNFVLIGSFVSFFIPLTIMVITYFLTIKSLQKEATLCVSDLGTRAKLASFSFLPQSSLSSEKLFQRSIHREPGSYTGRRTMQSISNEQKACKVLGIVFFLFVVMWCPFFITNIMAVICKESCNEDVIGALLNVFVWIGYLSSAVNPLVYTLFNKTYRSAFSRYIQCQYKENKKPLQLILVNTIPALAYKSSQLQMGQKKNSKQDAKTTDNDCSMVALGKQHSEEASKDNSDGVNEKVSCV
T3 sequence (P50406 whole entry): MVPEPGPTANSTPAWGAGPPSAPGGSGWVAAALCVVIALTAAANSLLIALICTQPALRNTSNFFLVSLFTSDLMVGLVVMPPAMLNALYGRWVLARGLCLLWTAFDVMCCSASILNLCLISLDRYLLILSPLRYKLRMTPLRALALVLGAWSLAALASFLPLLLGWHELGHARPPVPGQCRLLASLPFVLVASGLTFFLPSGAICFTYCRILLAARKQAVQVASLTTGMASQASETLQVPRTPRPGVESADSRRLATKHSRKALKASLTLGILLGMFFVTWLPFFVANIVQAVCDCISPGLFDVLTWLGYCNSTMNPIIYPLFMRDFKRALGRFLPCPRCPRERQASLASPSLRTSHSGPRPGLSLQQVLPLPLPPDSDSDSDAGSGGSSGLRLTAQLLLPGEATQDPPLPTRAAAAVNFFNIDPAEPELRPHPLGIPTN
Chain of human recombinant serotonin (5-Hydroxytryptamine) 5-HT7 receptor (P34969 whole entry): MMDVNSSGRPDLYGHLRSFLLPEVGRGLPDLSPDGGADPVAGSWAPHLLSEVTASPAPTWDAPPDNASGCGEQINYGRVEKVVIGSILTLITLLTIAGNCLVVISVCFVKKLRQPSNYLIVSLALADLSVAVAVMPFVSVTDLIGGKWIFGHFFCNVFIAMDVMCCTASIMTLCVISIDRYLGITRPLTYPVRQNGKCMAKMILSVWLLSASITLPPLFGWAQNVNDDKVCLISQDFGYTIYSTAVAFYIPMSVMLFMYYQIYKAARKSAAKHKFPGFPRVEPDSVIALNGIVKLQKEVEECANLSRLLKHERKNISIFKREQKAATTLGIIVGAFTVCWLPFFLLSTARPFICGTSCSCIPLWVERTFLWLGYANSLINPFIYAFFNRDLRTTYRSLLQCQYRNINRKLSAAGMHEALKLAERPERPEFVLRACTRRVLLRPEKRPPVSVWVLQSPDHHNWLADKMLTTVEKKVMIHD
Chain of histamine receptor H1 (P35367 whole entry): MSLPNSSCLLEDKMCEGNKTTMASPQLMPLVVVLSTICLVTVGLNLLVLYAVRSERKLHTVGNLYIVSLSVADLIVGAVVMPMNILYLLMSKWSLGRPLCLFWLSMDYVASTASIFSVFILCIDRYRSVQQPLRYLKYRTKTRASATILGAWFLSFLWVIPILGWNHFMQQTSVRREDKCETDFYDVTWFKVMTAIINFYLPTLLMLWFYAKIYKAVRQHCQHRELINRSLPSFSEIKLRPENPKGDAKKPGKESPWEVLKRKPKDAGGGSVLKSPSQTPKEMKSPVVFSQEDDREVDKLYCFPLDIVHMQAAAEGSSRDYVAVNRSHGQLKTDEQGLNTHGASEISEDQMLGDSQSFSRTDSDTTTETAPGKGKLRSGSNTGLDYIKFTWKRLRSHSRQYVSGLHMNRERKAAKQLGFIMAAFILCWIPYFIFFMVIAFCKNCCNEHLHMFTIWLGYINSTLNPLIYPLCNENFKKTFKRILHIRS
Chain of human dopamine D2L receptor (P14416 whole entry): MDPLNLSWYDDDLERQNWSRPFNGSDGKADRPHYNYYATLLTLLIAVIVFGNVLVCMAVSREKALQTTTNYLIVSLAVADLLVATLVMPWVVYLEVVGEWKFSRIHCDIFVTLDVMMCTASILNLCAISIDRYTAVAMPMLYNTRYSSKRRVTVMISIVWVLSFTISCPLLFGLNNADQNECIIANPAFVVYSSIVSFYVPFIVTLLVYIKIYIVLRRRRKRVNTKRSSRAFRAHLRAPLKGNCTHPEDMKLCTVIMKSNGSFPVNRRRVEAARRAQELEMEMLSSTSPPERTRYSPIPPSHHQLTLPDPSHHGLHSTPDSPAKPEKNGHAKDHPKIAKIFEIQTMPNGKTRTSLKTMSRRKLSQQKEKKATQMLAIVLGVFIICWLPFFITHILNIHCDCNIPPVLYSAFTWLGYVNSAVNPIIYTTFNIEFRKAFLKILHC
T1 sequence (P28222 whole entry): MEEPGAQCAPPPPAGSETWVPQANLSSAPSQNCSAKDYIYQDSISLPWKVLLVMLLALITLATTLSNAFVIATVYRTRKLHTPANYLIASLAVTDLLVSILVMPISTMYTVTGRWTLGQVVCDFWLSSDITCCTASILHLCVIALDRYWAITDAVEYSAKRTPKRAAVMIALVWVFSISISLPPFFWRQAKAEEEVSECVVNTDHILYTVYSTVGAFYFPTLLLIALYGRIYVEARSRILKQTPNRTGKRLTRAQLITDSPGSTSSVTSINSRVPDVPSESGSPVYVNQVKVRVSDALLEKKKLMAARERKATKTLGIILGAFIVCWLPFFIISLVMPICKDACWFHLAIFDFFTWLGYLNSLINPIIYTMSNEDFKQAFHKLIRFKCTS

Structure (SMILES) | inhibition at 1 µM (histamine receptor H1) | 5-HT1B (5 μM) % Binding relative to bound radioligand [1] | inhibition at 1 µM [2, 8] | inhibition at 1 µM [3] | inhibition at 1 µM [4] | inhibition at 1 µM [5] | inhibition at 1 µM [6] | inhibition at 1 µM [2, 9] | inhibition at 1 µM [7] | Histamine Binding (1 μM) H1, percent inhibition of specific binding (histamine receptor H1; 1 μM) | inhibition at 0.1 µM ([3]; read-out: Inhibition of ligand binding, Serotonin 5-HT2A (percent inhibition of specific binding), compound at 0.1 μM) | inhibition at 0.1 µM ([4]; compound at 0.1 μM) | Inhibition of ligand binding, Dopamine D2L ([2]; percent inhibition of specific binding, 1 µM) | inhibition at 0.1 µM ([7]; compound at 0.1 μM)
C/C=C(\Cn1c2c(c3cc(C)ccc31)CN(C)CC2)c1ccncc1 [Compound No. 359, (Z)-2,8-dimethyl-5-(2-(pyridin-4-yl)but-2-enyl)-2,3,4,5-tetrahydro-1H-pyrido[4,3-b]indole] | 38% | 68% | 27% |  |  |  |  |  |  |  |  |  |  | 
C/C(=C\n1c2c(c3cc(Cl)ccc31)CN(C)CC2)c1ccc(F)c(F)c1 [Compound 98, (E)-8-chloro-5-(2-(3,4-difluorophenyl)prop-1-enyl)-2,3,4,5-tetrahydro-2-methyl-1H-pyrido[4,3-b]indole] | 53% |  |  | 95% | 100% | 94% | 99% | 78% | 100% |  |  |  |  | 
C/C(=C\n1c2c(c3cc(Cl)ccc31)CN(C)CC2)c1ccc(Cl)c(Cl)c1 [Compound 103, (E)-8-chloro-5-(2-(3,4-dichlorophenyl)prop-1-enyl)-2,3,4,5-tetrahydro-2-methyl-1H-pyrido[4,3-b]indole] | 81% |  |  | 101% | 89% | 90% | 101% | 49% | 98% |  |  |  |  | 
C/C(=C\n1c2c(c3cc(Cl)ccc31)CN(C)CC2)c1cc(Cl)cc(Cl)c1 [Compound 215, (E)-8-chloro-5-(2-(3,5-dichlorophenyl)prop-1-enyl)-2-methyl-2,3,4,5-tetrahydro-1H-pyrido[4,3-b]indole] | 89% |  |  | 97% | 97% | 90% | 98% | 36% | 96% |  |  |  |  | 
C/C(=C\n1c2c(c3cc(Cl)ccc31)CN(C)CC2)c1ccccc1Cl [Compound 238, (E)-8-chloro-5-(2-(2-chlorophenyl)prop-1-enyl)-2-methyl-2,3,4,5-tetrahydro-1H-pyrido[4,3-b]indole] | 58% |  |  | 101% | 99% | 98% | 93% | 81% | 99% |  |  |  |  | 
C/C(=C/n1c2c(c3cc(C)ccc31)CN(C)CC2)c1cc(F)c(F)cc1Cl [Compound 220, (Z)-5-(2-(2-chloro-4,5-difluorophenyl)prop-1-enyl)-2,8-dimethyl-2,3,4,5-tetrahydro-1H-pyrido[4,3-b]indole] | 91% |  |  | 99% | 99% | 104% | 99% | 32% | 98% |  |  |  |  | 
C/C(=C\n1c2c(c3ccc(C(F)(F)F)cc31)CN(C)CC2)c1ccc(F)cc1 [Compound 229, (E)-5-(2-(4-fluorophenyl)prop-1-enyl)-2-methyl-7-(trifluoromethyl)-2,3,4,5-tetrahydro-1H-pyrido[4,3-b]indole] | 54% |  |  | 100% | 107% | 89% | 96% | 100% | 100% |  |  |  |  | 
C/C(=C\n1c2c(c3c(Cl)c(Cl)ccc31)CN(C)CC2)c1ccncc1 [Compound 245, (E)-8,9-dichloro-2-methyl-5-(2-(pyridin-4-yl)prop-1-enyl)-2,3,4,5-tetrahydro-1H-pyrido[4,3-b]indole] | 60% |  |  | 102% | 103% | 74% | 71% | 92% | 96% |  |  |  |  | 
COc1ccc(C#Cn2c3c(c4cc(C)ccc42)CN(C)CC3)cc1F [Compound No. 485, 5-((3-fluoro-4-methoxyphenyl)ethynyl)-2,8-dimethyl-2,3,4,5-tetrahydro-1H-pyrido[4,3-b]indole] | -6% |  | 14% | 96% | 89% | 77% | 97% |  | 102% |  |  |  |  | 
C/C(=C\n1c2c(c3cc(C)ccc31)CN(C)CC2)c1ccc(Cl)c(Cl)c1 [Compound 231, (E)-5-(2-(3,4-dichlorophenyl)prop-1-enyl)-2,8-dimethyl-2,3,4,5-tetrahydro-1H-pyrido[4,3-b]indole] | 58% |  |  | 101% | 97% | 94% | 97% | 40% | 98% |  |  |  |  | 
C/C(=C\n1c2c(c3ccc(Cl)cc31)CN(C)CC2)c1ccncc1 [Compound 219, (E)-7-chloro-2-methyl-5-(2-(pyridin-4-yl)prop-1-enyl)-2,3,4,5-tetrahydro-1H-pyrido[4,3-b]indole] | 60% |  |  | 101% | 102% | 94% | 82% | 96% | 98% | 66% | 100% | 96% | 97% | 94%
